{
  "source": "patent US10660335B2",
  "about": "“Plant disease control agent” (SDS BIOTECH K.K., priority 2011, dated 2020)",
  "assay_type_in_all_cases": "cell-based",
  "key": {"[1]": {"test_system": "Rhizoctonia solani", "experiment": "In vitro antimicrobial activity, mycelial growth on potato dextrose agar medium", "conditions": "Concentration 10 ppm"}, "[2]": {"test_system": "Pyricularia oryzae", "conditions": "Concentration 10 ppm; colony diameter vs control, 25° C., second day to seventh day"}, "[3]": {"test_system": "Botrytis cinerea", "experiment": "In vitro antimicrobial activity, mycelial growth on potato dextrose agar medium", "conditions": "Concentration 10 ppm"}},
  "data": [
    {"substance": "iso-C16 bacillomycin D [Comparative compound]", "values": [
      {"measurement": "Growth inhibition ratio (%) Rhizoctonia solani", "setting": "[1]", "value": 9, "unit": "%"},
      {"measurement": "Growth inhibition ratio (%) Pyricularia oryzae", "setting": "[2]", "value": 35, "unit": "%"},
      {"measurement": "Growth inhibition ratio (%) Botrytis cinerea", "setting": "[3]", "value": 39, "unit": "%"}
    ]}
  ]
}
